{"source": "paper PMC8841438", "about": "(Clinical and Translational Science, 2021)", "key": {"[1]": {"assay": "Study 3: metformin pharmacokinetics alone or with filgotinib in healthy subjects", "settings": "human, plasma, oral, 850 mg"}, "[2]": {"settings": "available data; cited from earlier work"}, "Safety assessments": {"assay": "Safety assessments", "format": "in vivo, human", "settings": "for subjects with AEs: all grade 1"}, "CES2": {"test_system": "CES2", "settings": "human hepatocytes; cited from earlier work"}, "CES1": {"test_system": "CES1", "settings": "human hepatocytes; cited from earlier work"}, "bile salt export pump": {"test_system": "bile salt export pump", "settings": "in vitro; at clinically relevant concentrations; cited from earlier work"}, "[3]": {"target": "T1, organic cation transporter 2 (OCT2) (Homo sapiens, UniProt O15244)", "T1 sequence (O15244 1-555)": "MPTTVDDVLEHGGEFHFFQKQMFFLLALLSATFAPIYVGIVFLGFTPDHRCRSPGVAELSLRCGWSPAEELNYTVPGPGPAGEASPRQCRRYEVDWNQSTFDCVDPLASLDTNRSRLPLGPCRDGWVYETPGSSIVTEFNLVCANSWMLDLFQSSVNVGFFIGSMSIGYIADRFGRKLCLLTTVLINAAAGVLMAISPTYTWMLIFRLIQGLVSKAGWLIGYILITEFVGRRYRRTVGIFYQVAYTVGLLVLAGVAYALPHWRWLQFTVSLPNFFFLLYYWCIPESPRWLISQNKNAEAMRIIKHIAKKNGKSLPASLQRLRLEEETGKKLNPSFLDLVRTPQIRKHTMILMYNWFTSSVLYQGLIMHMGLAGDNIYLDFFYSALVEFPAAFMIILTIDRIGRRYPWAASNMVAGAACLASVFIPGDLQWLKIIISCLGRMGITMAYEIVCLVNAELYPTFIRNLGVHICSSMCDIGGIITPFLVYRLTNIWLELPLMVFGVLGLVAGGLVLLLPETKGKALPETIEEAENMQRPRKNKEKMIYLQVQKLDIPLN", "assay": "In vitro transporter inhibition: OCT2", "format": "in vitro ADME", "settings": "data on file at Gilead Sciences, Inc."}, "[4]": {"test_system": "breast cancer resistance protein", "settings": "in vitro; at clinically relevant concentrations; cited from earlier work"}, "[5]": {"settings": "filgotinib: unchanged; cited from earlier work"}, "[6]": {"test_system": "organic anion transporter 3", "settings": "in vitro; at clinically relevant concentrations; cited from earlier work"}, "MATE2K": {"target": "MATE2K (Homo sapiens, UniProt Q86VL8)", "sequence (Q86VL8 1-566 isoform Q86VL8-3)": "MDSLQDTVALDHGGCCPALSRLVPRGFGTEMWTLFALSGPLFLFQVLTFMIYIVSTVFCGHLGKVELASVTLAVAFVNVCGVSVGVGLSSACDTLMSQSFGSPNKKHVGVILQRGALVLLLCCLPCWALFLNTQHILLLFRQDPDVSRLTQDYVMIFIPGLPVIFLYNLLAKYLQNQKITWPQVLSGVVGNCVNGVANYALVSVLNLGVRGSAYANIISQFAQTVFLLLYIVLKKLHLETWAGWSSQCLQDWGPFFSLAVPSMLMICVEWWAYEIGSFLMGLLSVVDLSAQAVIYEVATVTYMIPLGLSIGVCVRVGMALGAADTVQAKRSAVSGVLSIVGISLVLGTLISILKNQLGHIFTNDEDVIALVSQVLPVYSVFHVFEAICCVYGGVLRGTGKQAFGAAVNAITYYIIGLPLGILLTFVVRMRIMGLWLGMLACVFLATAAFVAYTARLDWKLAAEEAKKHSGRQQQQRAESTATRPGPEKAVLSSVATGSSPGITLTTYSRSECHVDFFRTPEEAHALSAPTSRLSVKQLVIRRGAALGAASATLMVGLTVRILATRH", "assay": "In vitro transporter inhibition: MATE2K", "format": "in vitro ADME", "settings": "data on file at Gilead Sciences, Inc."}, "P‐glycoprotein": {"test_system": "P‐glycoprotein", "settings": "in vitro; cited from earlier work"}, "[7]": {"test_system": "organic anion transporter 1", "settings": "in vitro; at clinically relevant concentrations; cited from earlier work"}, "[8]": {"test_system": "organic cation transporter 1", "settings": "in vitro; at clinically relevant concentrations; cited from earlier work"}, "JAK1": {"test_system": "JAK1", "settings": "cited from earlier work"}, "P‐gp": {"test_system": "P‐gp", "settings": "in vitro; at clinically relevant concentrations; cited from earlier work"}, "[9]": {"format": "in vivo, human", "settings": "study 2"}, "[10]": {"test_system": "organic anion transporter 4", "settings": "in vitro; at clinically relevant concentrations; cited from earlier work"}, "[11]": {"settings": "cited from earlier work"}, "[12]": {"format": "in vivo, human", "settings": "study 1"}, "[13]": {"settings": "patients with rheumatoid arthritis"}, "[14]": {"settings": "filgotinib 200 mg after multiple doses of rifampin 600 mg vs alone"}, "[15]": {"settings": "filgotinib + rifampin vs filgotinib alone"}, "[16]": {"settings": "single filgotinib 200 mg alone, fasting, plasma, mean (%CV), N = 14"}, "[17]": {"settings": "single filgotinib 200 mg alone, median (Q1, Q3), N = 14"}, "[18]": {"settings": "filgotinib + itraconazole vs filgotinib alone"}, "[19]": {"settings": "single filgotinib 100 mg alone, fasting, median (Q1, Q3), N = 13"}, "[20]": {"settings": "single filgotinib 100 mg alone, fasting, plasma, mean (%CV), N = 13"}}, "note": "“Also recorded” adds a separate entry of the source. Where two headings read alike, the source gives them in different places."}
{"smiles": "CN(C)C(=N)N=C(N)N", "note": "[Metformin, metformin]", "values": [{"measurement": "AUC(0-inf)", "setting": "[1]", "value": 8720, "unit": "ng·h/mL"}, {"measurement": "AUC(0-t)", "setting": "[1]", "value": 8640, "unit": "ng·h/mL"}, {"measurement": "maximal increase of metformin exposure via OCT2, MATE1, and MATE2K inhibition", "setting": "[2]", "value": "~ 2.6 fold"}, {"measurement": "subjects with AEs", "setting": "Safety assessments; study 3, by treatment period", "value": 25, "unit": "%"}, {"measurement": "AE considered related to study drug (kind of AE)", "setting": "Safety assessments; study 3, one subject, by treatment phase", "value": "nausea + vomiting"}]}
{"smiles": "CO[C@H]1/C=C/O[C@@]2(C)Oc3c(C)c(O)c4c(O)c(c(/C=N/N5CCN(C)CC5)c(O)c4c3C2=O)NC(=O)/C(C)=C\\C=C\\[C@H](C)[C@H](O)[C@@H](C)[C@@H](O)[C@@H](C)[C@H](OC(C)=O)[C@@H]1C", "note": "[rifampin, reference compound]", "values": [{"measurement": "subjects with AEs considered to be related to study drug (nausea)", "setting": "Safety assessments; study 2", "value": 7.1, "unit": "%"}, {"measurement": "subjects with grade 3 laboratory abnormality (occult blood in urine)", "setting": "Safety assessments; study 2", "value": 14, "unit": "%"}, {"measurement": "subjects with AEs", "setting": "Safety assessments; study 2, by treatment period", "value": 14, "unit": "%"}, {"measurement": "subjects with at least one graded laboratory abnormality", "setting": "Safety assessments; study 2, by treatment period, majority grade 1 or 2", "value": 93, "unit": "%"}, {"measurement": "induction of CES2", "setting": "CES2", "value": "moderate induction"}, {"measurement": "induction of CES1", "setting": "CES1", "value": "moderate induction"}]}
{"smiles": "Nc1nc2cccc(-c3ccc(CN4CCS(=O)(=O)CC4)cc3)n2n1", "note": "[GS‐829845]", "values": [{"measurement": "inhibition of bile salt export pump", "setting": "bile salt export pump", "value": "not inhibitors"}, {"measurement": "inhibition of OCT2 (in words)", "setting": "[3]; in vitro data", "value": "may inhibit"}, {"measurement": "ratio of maximum unbound plasma concentration over in vitro IC50 against OCT2", "setting": "[3]; [13]", "value": 0.5}, {"measurement": "inhibition of breast cancer resistance protein", "setting": "[4]", "value": "not inhibitors"}, {"measurement": "orally administered dose recovered in feces as the named species", "setting": "[5]", "value": "~ 9%"}, {"measurement": "orally administered dose recovered in urine as the named species", "setting": "[5]", "value": "~ 54%"}, {"measurement": "inhibition of organic anion transporter 3", "setting": "[6]", "value": "not inhibitors"}, {"measurement": "inhibition of MATE2K (in words)", "setting": "MATE2K; in vitro data", "value": "may inhibit"}, {"measurement": "ratio of maximum unbound plasma concentration over in vitro IC50 against MATE2K", "setting": "MATE2K; [13]", "value": 0.69}, {"measurement": "substrate of P‐glycoprotein", "setting": "P‐glycoprotein", "value": "substrates"}, {"measurement": "inhibition of organic anion transporter 1", "setting": "[7]", "value": "not inhibitors"}, {"measurement": "inhibition of organic cation transporter 1", "setting": "[8]", "value": "not inhibitors"}, {"measurement": "JAK1 potency relative to filgotinib", "setting": "JAK1", "value": "~ 1/10"}, {"measurement": "inhibition of P‐gp", "setting": "P‐gp", "value": "not inhibitors"}, {"measurement": "reduction in AUCinf by rifampin", "setting": "[9]; [14]", "value": 38, "unit": "%"}, {"measurement": "reduction in C max by rifampin", "setting": "[9]; [14]", "value": 19, "unit": "%"}, {"measurement": "AUCinf %GLSM ratio (90% CI)", "setting": "[9]; [15]", "value": "61.9 (57.9, 66.1) %"}, {"measurement": "AUClast %GLSM ratio (90% CI)", "setting": "[9]; [15]", "value": "62.3 (58.4, 66.4) %"}, {"measurement": "C max %GLSM ratio (90% CI)", "setting": "[9]; [15]", "value": "81.0 (76.8, 85.4) %"}, {"measurement": "effect of rifampin on T max and t 1/2 (in words)", "setting": "[9]; filgotinib: T max and t 1/2, GS‐829845: Tmax", "value": "similar"}, {"measurement": "AUCinf", "setting": "[9]; [16]", "value": "77,400 (25.3) ng*h/ml"}, {"measurement": "AUClast", "setting": "[9]; [16]", "value": "76,700 (24.8) ng*h/ml"}, {"measurement": "C max", "setting": "[9]; [16]", "value": "2900 (15.1) ng/ml"}, {"measurement": "Tmax", "setting": "[9]; [17]", "value": "4.00 (3.00, 4.00) h"}, {"measurement": "t1/2", "setting": "[9]; [17]", "value": "15.9 (14.8, 18.9) h"}, {"measurement": "inhibition of organic anion transporter 4", "setting": "[10]", "value": "not inhibitors"}, {"measurement": "accumulation following multiple doses", "setting": "[11]", "value": "approximately twofold accumulation"}, {"measurement": "time to steady‐state concentrations", "setting": "[11]", "value": "~4", "unit": "days"}, {"measurement": "AUCinf %GLSM ratio (90% CI)", "setting": "[12]; [18]", "value": "107 (104,110) %"}, {"measurement": "AUClast %GLSM ratio (90% CI)", "setting": "[12]; [18]", "value": "106 (103,109) %"}, {"measurement": "effect of itraconazole on pharmacokinetic parameters (in words)", "setting": "[12]; filgotinib: Tmax, t1/2, GS‐829845: C max, AUCinf, T max, t 1/2", "value": "no effect; also recorded: similar; also recorded: did not affect"}, {"measurement": "T max", "setting": "[12]; [19]", "value": "4.00 (4.00, 4.00) h"}, {"measurement": "t1/2", "setting": "[12]; [19]", "value": "17.0 (14.0,19.5) h"}, {"measurement": "AUCinf", "setting": "[12]; [20]", "value": "31,200 (18.4) ng*h/ml"}, {"measurement": "AUClast", "setting": "[12]; [20]", "value": "30,800 (18.0) ng*h/ml"}, {"measurement": "C max", "setting": "[12]; [20]", "value": "1160 (24.8) ng/ml"}]}
